Compound | melting point [°C]
Fc1cc2c(c(-c3c(Cl)cccc3Cl)c1)OC(CN1CCCC1)C2 (centres undefined) | 65 to 67
O=C(O)c1nc2c(=O)[nH]c3cc(C(F)(F)F)ccc3n2c1CNc1ccc2c(c1)OCO2 | > 250
CCOc1cc(F)ccc1-c1noc2c(Cl)c(OC)ccc12 | 150 to 152
CC(NC(=S)NCC(COC(=O)C(C)(C)C)Cc1ccc(C(C)(C)C)cc1)c1ccc(NS(C)(=O)=O)cc1 (centres undefined) | 87
CC(C)NC(=O)Cc1cccc(N)c1 | 93 to 95
NC(=O)c1cc(O)c(O)cc1N | > 300
CCCN1CC(NC(=O)C(C)(C)C)CC2c3cccc4[nH]c(Br)c(c34)CC21 (centres undefined) | 182 to 183
CCCc1c2ccccc2c(O)c2c(=O)cc(C(=O)OCC)oc12 | 148 to 150
O=C(Cc1ccccc1)Nc1ccccc1C(F)(F)F | 104
Fc1c(Cl)cc(Br)c2ccccc12 | 48 to 51
COCc1nccc(=O)[nH]1 | 125 to 127
CCOC(=O)CCN1CCN(C2=Nc3ccccc3Cc3ccccc32)CC1 | 133 to 134
N#CCCNC(=O)c1cccc(-c2ccc(F)c3cc(Cc4cccc(C(F)(F)F)c4)oc23)c1 | 158 to 159
C=C1C(=O)N(C)CCC1c1cccc(OC)c1 (centres undefined) | 67 to 70
CCn1cnc2c(=O)[nH]c(N)nc21 | > 300
COCC(C)Nc1nccc(Oc2ccc(NC(=O)c3cc(F)cc(N4CCCCC4)c3)c3ccccc23)n1 (centres undefined) | 94 to 95
CC(C)(C)[Si](C)(C)Oc1ccc2c(c1)CCc1c-2c(=O)oc2cc(O[Si](C)(C)C(C)(C)C)ccc12 | 145 to 147
CC1(C)CCC(C)(C)c2cc(CCc3ncccn3)c(C=O)cc21 | 78 to 84.5
CC(=O)NC[C@H]1CN(c2ccc(C(=O)c3ccc4ccc(C)cn34)cc2)C(=O)O1 | 237 to 239
CN1Cc2cc3ccc4c(c3c(-c3ccc5c(c3)OCO5)c2C1=O)OCO4 | 242 to 244
CCOC(=O)C(=NOC)c1csc(NC(=O)CCl)n1 | 81 to 82
CC=C(C)C1CCC2C3CC(=O)C4=CC(=O)CCC4(C)C3CCC12C (centres undefined) | 172 to 178
COc1c(C(=O)O)csc1S(=O)(=O)Oc1ccc(-c2c3ccccc3c(Br)c3sc(C)c(C)c23)cc1C1CCCC1 | > 225
CC(C)C[C@H](NC(=O)C1(N)CCCCC1)C(=O)NCC(N)=O | 136 to 147
COC(=O)c1cccc(OC)c1OCCC#N | 74 to 75

Compound | melting point [°C]
CCCCCCCCCCCCCCSc1ccc(C(=O)O)o1 | 84 to 86
CC1Cc2c(F)cc(F)cc2C1=O (centres undefined) | 68 to 69
O=C(O)c1cc(-n2c(-c3ccccc3)cc3c2CCCC3)ccc1S | 186 to 188
CSc1cccc(-n2ncc(-c3ccc(S(C)(=O)=O)cc3)c(-c3ccc(F)cc3)c2=O)c1 | 196
O=C(CCl)Nc1cccc2c1C(=O)c1c(NC(=O)CCl)cccc1C2=O | 280 to 281
Cc1cccc(-c2sc(N)nc2-c2ccc3c(c2)OCO3)n1 | 170 to 172
O=C(c1ccc(-n2cncn2)cc1)N1CCC(NCc2ccccc2)CC1 | 137 to 138
CCNCC1CCN(c2c(F)cc3c(=O)c(C(=O)O)cn(C4CC4)c3c2F)C1 (centres undefined) | 256 to 258
CCn1cc(C(=O)O)c(=O)c2cc(C=NO)sc21 | 315 to 317
CCOc1ccc(CCc2ccc(OC(F)F)cc2)cc1 | 37
CCOP(=O)(OCC)c1c(-c2c(OC)ccc3ccccc23)cc2c(c1C)COC2 | 68 to 69.9
COc1ccccc1[C@H](c1cccc2ccccc12)[C@@](C)(C#N)C(=O)N1CCN(c2ccc(Cl)cc2)CC1 | 178 to 180
CC(NC(=O)OCc1ccccc1)C(=O)NCCc1ccccc1 (centres undefined) | 125 to 126
COCC1(C)CC(=O)c2cc(C#N)ccc2O1 (centres undefined) | 79 to 81
CCOC(=O)c1cc2cc(OC)c(OC)cc2s1 | 84 to 85
CC(C)NCC1CCN(c2c(F)cc3c(=O)c(C(=O)O)cn(C4CC4)c3c2F)C1 (centres undefined) | 218 to 221
Cn1ccnc1COc1ccc(-c2cc(-c3c[nH]nc3-c3ccccn3)ccn2)cc1 | 112
O=C(NCCCCC1N=C(c2ccccc2)OC1=O)OCc1ccccc1 (centres undefined) | 72 to 73
CCN(CC)c1ccc([N+](=O)[O-])c(N2CCN(C(C)=O)CC2)n1 | 120
COc1ccc2cc([C@H](C)C(=O)OC(C)C(=O)NCC(=O)O)ccc2c1 (some centres undefined) | 174 to 175
CCc1sc2ncccc2c1S(=O)(=O)Nc1onc(C)c1Cl | 152 to 154
CC(=O)C1=C(O)c2c(c3ccccc3n2C)S(=O)(=O)N1 | 210 to 211
CC(n1cnc2cc(-c3ccc(C4=NCCO4)cc3)sc2c1=O)C(O)(Cn1cncn1)c1ccc(F)cc1F (centres undefined) | 235 to 236
CN=C(NC#N)C1=CC(CF)(CF)Oc2ccc([N+](=O)[O-])cc21 | 259 to 261
Cc1c(CNS(=O)(=O)c2ccc(C(F)(F)F)cc2)nn(-c2ccc(Cl)cc2Cl)c1-c1ccc(Br)cc1 | 195

Compound | melting point [°C]
O=C(OCc1ccccc1)[C@@H](Cc1ccccc1)NS(=O)(=O)c1ccc2ccccc2c1 | 107
CCNc1nc(OC)c(C(=O)NCC2CCCN2C2CCCCC2)nc1Cl (centres undefined) | 164 to 165
CCOc1ccc(-c2nc(-c3cc(C(=O)O)ccn3)cs2)cc1OCC | 236 to 237
CC1(C)C(C(=O)NO)N(S(=O)(=O)c2ccc(-c3ccc(Br)cc3)cc2)CCS1(=O)=O (centres undefined) | 190 to 191
COc1ccccc1CCNC(=S)Nc1nc2ccccc2[nH]1 | 176 to 184
CCn1ncnc1COc1nn2c(-c3ccccc3F)nncc2c1-c1cccs1 | 190 to 192
O=C(NCCCCCn1ccnc1)c1ccc(Cl)s1 | 123 to 125
N#Cc1nn(-c2c(Cl)cc(C(F)(F)F)cc2Cl)cc1C#CBr | 166 to 168
C=CCCN(CCC=C)Cc1noc(-c2ncn3c2[C@@H]2CCN2C(=O)c2c(Cl)cccc2-3)n1 | 115 to 120
FC(F)(F)CNC(=S)NCC(F)(F)F | 152 to 153
Cc1cc(C2(C(F)(F)F)C=NC(c3ccccc3)C2)ccc1NC(=O)c1cccc(I)c1C(=O)NC(C)C (centres undefined) | 118 to 120
CCCCCCCCCCCCCCCCCCNC(=O)NN | 100
CCCNC(=O)N1CC(Oc2ccc(C(F)(F)F)cc2)C1 | 119 to 120
CCc1cccc(C)c1CNc1cc(C(=O)N(C)C)cc2c1nc(CO)n2C | 138 to 141
COC(=O)C1=CC(C)(C#N)N(c2cccc(Cl)c2Cl)N1 (centres undefined) | 66 to 67
CCOC(=O)C1=C(C)NN=C(CC)C1c1ccccc1Cl (centres undefined) | 112
CN1CC(c2cc[nH]n2)CC2c3cccc4[nH]cc(c34)CC21 (centres undefined) | 160 to 162
O=C(Nc1ccc(F)nc1)c1cccc(-c2cccc3oc(Cc4cccc(C(F)(F)F)c4)cc23)c1 | 117 to 118
CC1CC(=O)NN=C1c1ccc2[nH]c(-c3ccnnc3)cc2c1 (centres undefined) | 293 to 295
CN(CCN(O)C(N)=O)Cc1cccc(Oc2cc(Cl)cc(Cl)c2)c1 | 111 to 113
O=C1CCCN1c1nc(-n2ccnc2)c(I)c(C(F)(F)F)n1 | 195 to 197
CC1(C)CCCC(C)(C)N1Oc1ccc(C(F)(F)F)cc1[N+](=O)[O-] | 54 to 55
Cc1cc(C(=O)NC(C)CN(C)CC(C)NC(=O)c2cc(C)cc3nc4ccccc4nc23)c2nc3ccccc3nc2c1 (centres undefined) | 75 to 78
COC(=O)c1c(F)cc(OCCNC(=O)OCc2ccccc2)cc1F | 95 to 97
CC(=O)CC(=O)c1cccc2[nH]ccc12 | 104 to 105

Compound | melting point [°C]
O=C(NC(CCc1ccccc1)C(=O)Nc1n[nH]c(=S)s1)OCC1c2ccccc2-c2ccccc21 (centres undefined) | 186 to 187
CC(C)c1ccc(C(=O)Cl)cc1S(N)(=O)=O | 177
CN(C)C(=O)Nc1coc2ccccc2c1=S | 108
CN(C)C(=O)Nc1ccc(CN2OCC(C)(C)C2=O)c(Cl)c1 | 145 to 147
Cn1c(=O)n(-c2cc(Cl)cc(Cl)c2)c(=O)n1C | 209 to 211
CC(=O)Nc1ccc(OCC2CO2)c(-c2nnco2)c1 (centres undefined) | 173 to 175
Cc1ccc(C(=O)Nc2c[nH]nc2C(=O)NCCC(F)(F)F)cn1 | 196 to 197
OC[C@@H](O)[C@@H]1OC[C@H](O)[C@H]1O (racemic) | 69.5 to 71
CCOC(=O)c1c(C)nc2nccnc2c1NCCCN(C)C | 42 to 44
NS(=O)(=O)c1cccc(C(=O)Nc2ccc(-n3nc(C(F)(F)F)cc3C(F)(F)F)cc2)c1 | 177 to 178
CC1(c2ccccc2)C(=O)Nc2cc(Cl)ccc2C1=O (centres undefined) | 174 to 175
N#CC(C#N)=C1CC=CO1 | 194 to 196
CC(=Cc1ccccc1)c1ccc2c(c1)SC(C)(C)S2 | 57 to 58
CCCc1nc2c(N)nc3cc(OCCNC(=O)OC(C)(C)C)ccc3c2s1 | 136 to 139
CC(=O)Oc1cc(OC(C)=O)c(C)c(C(=O)OCC(Cl)(Cl)Cl)c1C | 127 to 128
CCOC(=O)c1c(N2CCN(C(=O)c3cccs3)CC2)c2cnccc2n(Cc2cccc(F)c2)c1=O | 135
C=CS(=O)(=O)Nc1cccc(Nc2nc(N[C@H](C)C(C)(C)C)c3nc[nH]c3n2)c1 | 133 to 136
CC(=O)Nc1nc2c(ncn2COCC(COC(C)=O)OC(C)=O)c(=O)[nH]1 (centres undefined) | 162 to 165
Clc1ccc(-c2cc[nH]c2)cc1 | 117 to 118
CCCc1c(O)ccc2oc(Cc3ccc(F)cc3)c(C)c12 | 121 to 123
Clc1ccc2nc(Cl)c(-c3ccccc3)cc2c1 | 147 to 149
CCOC(=O)c1c[nH]c2cc(F)c(OC)cc2c1=O | 280
COc1nc(C)cnc1NS(=O)(=O)c1cccnc1-c1ccc(OCc2ccc(C(=O)O)cc2)cc1 | 204 to 205
CCOCCC(Cc1ccc(NC(=O)NC(=O)c2ccc(C#N)cc2)cc1)C(=O)OC(C)(C)C (centres undefined) | 144 to 145
